In patent US10143681B2, “Factor XIa inhibitors” (MERCK SHARP & DOHME CORP., priority 2016, dated 2018):

How the values were obtained:
[1] = target: Human plasma kallikrein (Homo sapiens (Human), UniProt P03952); experiment: Kallikrein Assay; type: biochemical; settings: purified Human plasma kallikrein 0.5 nM, substrate Acetyl-K-P-R-AFC; read-out: P. KLK IC50
Method: The effectiveness of a compound of the present invention as an inhibitor of Kallikrein can be determined using a relevant purified serine protease, and an appropriate synthetic substrate. The rate of hydrolysis of the chromogenic or fluorogenic substrate by the relevant serine protease was measured both in the absence and presence of compounds of the present invention. Assays were conducted at room temperature or at 37° C. […] A decrease in the rate of fluorescence change in the presence of inhibitor is indicative of enzyme inhibition. Such methods are known to one skilled in the art. The results of this assay are expressed as the half-maximal inhibitory concentrations (IC50), or the inhibitory constant, Ki.
Kallikrein determinations were made in 50 mM HEPES buffer at pH 7.4 containing 150 mM NaCl, 5 mM CaCl2, and 0.1% PEG 8000 (polyethylene glycol; Fisher Scientific). Determinations were made using purified Human plasma kallikrein at a final concentration of 0.5 nM (Enzyme Research Laboratories) and the synthetic substrate, Acetyl-K-P-R-AFC (Sigma # C6608) at a concentration of […].
Times required to achieve equilibration between enzyme and inhibitor were determined in control experiments. The reactions were performed under linear progress curve conditions and fluorescence increase measured at 405 Ex/510 Em nm. […] IC50 was determined by inflection point from a four parameter logistic curve fit. Ki was calculated using the Cheng Prusoff equation, Ki=IC50/(1+([S]/Km)).

[2] = target: human Factor XIa (Homo sapiens (Human), UniProt P03951); experiment: Factor XIa Assay; type: biochemical; settings: human Factor XIa 0.04 nM, 30 min pre-incubation at 25° C., substrate GPR-AFC; read-out: FXIa IC50
Chain of human Factor XIa (P03951 388-625): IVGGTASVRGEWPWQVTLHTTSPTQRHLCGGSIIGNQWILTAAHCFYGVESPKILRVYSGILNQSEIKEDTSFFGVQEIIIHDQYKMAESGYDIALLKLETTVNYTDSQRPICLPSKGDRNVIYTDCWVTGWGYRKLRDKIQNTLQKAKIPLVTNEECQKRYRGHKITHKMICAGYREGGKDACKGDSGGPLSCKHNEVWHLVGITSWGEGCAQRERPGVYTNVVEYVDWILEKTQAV
Chain of human Factor XIa (P03951 19-387 partner): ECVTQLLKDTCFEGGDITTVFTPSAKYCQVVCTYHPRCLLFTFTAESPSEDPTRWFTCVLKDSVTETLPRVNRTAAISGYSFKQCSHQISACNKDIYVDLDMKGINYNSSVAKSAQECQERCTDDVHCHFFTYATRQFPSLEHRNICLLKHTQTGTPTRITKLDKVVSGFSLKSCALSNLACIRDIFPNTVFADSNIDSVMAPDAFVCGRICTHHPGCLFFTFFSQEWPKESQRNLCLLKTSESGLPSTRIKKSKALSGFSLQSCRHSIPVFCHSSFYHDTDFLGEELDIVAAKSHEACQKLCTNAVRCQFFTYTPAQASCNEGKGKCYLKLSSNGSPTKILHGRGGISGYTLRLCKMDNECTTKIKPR
Procedure, shortened: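 IC50 values were obtained from four-parameter log(inhibitor)-response fits of % inhibition, then converted to Ki using Cheng-Prusoff. GPR-AFC hydrolysis was read at 400/505 nm after 60 min at 25 °C.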

[3] = system: Human plasma (intrinsic coagulation cascade); experiment: Activated Partial Thromboplastin Time (aPTT) Assay; settings: concentration that causes a 50% (1.5×) increase of clot time over vehicle
Procedure, shortened: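 Inhibitors spiked into pooled citrated normal-donor human plasma (aPTT 28-40 seconds), run on automated coagulation analyzer: ellagic acid activation of Factor XII, then clot time after recalcification. Reported as concentration giving 50% (1.5×) prolongation over vehicle clot time.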

Chain of Human plasma kallikrein (P03952 391-638): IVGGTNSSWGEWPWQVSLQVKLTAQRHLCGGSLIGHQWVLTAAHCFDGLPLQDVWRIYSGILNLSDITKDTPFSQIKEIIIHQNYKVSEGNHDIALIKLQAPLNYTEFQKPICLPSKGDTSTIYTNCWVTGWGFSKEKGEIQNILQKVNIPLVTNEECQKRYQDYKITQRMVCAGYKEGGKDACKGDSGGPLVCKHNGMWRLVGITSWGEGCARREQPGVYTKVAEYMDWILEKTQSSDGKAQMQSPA
Chain of Human plasma kallikrein (P03952 20-390 partner): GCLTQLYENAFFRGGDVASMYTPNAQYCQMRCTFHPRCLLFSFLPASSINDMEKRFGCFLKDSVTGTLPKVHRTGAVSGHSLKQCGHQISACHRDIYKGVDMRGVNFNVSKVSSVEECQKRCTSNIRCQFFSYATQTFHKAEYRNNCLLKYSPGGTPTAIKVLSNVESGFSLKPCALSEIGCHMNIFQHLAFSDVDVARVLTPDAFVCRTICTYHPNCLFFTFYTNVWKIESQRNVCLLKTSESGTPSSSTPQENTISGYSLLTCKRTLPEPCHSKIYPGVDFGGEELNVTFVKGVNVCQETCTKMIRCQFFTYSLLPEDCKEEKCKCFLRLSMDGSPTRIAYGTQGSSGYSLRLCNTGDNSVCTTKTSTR

IC50 [1] [nM] | IC50 [2] [nM] | Structure (SMILES) | aPTT (1.5x) [3] [µM]
162 | 2.8 | O=C(O)c1ccc(NC(=O)C(CC2CC2)c2ccc(-c3c(C(F)(F)F)ccc(Cl)c3F)c[n+]2[O-])cc1 (single isomer, unassigned) [Example 27, (R)- or (S)-2-(1-((4-carboxyphenyl)amino)-3-cyclopropyl-1-oxopropan-2-yl)-5-(3-chloro-2-fluoro-6-(trifluoromethyl)phenyl)pyridine 1-oxide] | 2.68
19.2 | 1.3 | CC1CC(CC(C(=O)Nc2ccc(C(=O)O)cc2)c2ccc(-c3c(C(F)(F)F)ccc(Cl)c3F)c[n+]2[O-])C1 (single isomer, unassigned) [Example 74, 2-(1-((4-carboxyphenyl)amino)-3-(3-methylcyclobutyl)-1-oxopropan-2-yl)-5-(3-chloro-2-fluoro-6-(trifluoromethyl)phenyl) pyridine 1-oxide] | 2.77
5.7 | 0.33 | O=C(O)c1ccc(NC(=O)C(C[C@H]2CC[C@H](O)CC2)c2ccc(-c3c(C(F)F)ccc(Cl)c3F)c[n+]2[O-])cc1 (single isomer, unassigned) [Example 37, (R)- or (S)-2-(1-((4-carboxyphenyl)amino)-3-((1r,4r)-4-hydroxycyclohexyl)-1-oxopropan-2-yl)-5-(3-chloro-6-(difluoromethyl)-2-fluorophenyl)pyridine 1-oxide] | 0.4
21.3 | 0.4 | CC1(C)CC1CC(C(=O)Nc1ccc(C(=O)O)cc1)c1ccc(-c2c(OC(F)F)ccc(Cl)c2F)c[n+]1[O-] (single isomer, unassigned) [Example 112, 2-(1-((4-carboxyphenyl)amino)-3-(2,2-dimethylcyclopropyl)-1-oxopropan-2-yl)-5-(3-chloro-6-(difluoromethoxy)-2-fluorophenyl)pyridine 1-oxide] | 2.21
31 | 3 | N#CC1(CC(C(=O)Nc2ccc(C(=O)O)cc2)c2ccc(-c3c(C(F)F)ccc(Cl)c3F)c[n+]2[O-])CC1 (racemic) [Example 31, 2-(1-((4-carboxyphenyl)amino)-3-(1-cyanocyclopropyl)-1-oxopropan-2-yl)-5-(3-chloro-6-(difluoromethyl)-2-fluorophenyl)pyridine 1-oxide] | 0.88
984 | 6.9 | O=C(O)c1ccc(NC(=O)[C@H](CC2CC2)c2ccc(-c3c(OCC4CC4)ccc(Cl)c3F)c[n+]2[O-])cc1 [Example 13, (R)-4-[(2-{5-[3-chloro-6-(cyclopropylmethoxy)-2-fluorophenyl]-1-oxidopyridin-2-yl}-3-cyclopropylpropanoyl)amino] benzoic acid] | 11.1
857 | 9 | CCOc1ccc(Cl)c(F)c1-c1ccc(C(CC2CC2)C(=O)Nc2ccc(C(=O)O)cc2)[n+]([O-])c1 (single isomer, unassigned) [Example 9, (R)- or (S)-4-({2-[5-(3-chloro-6-ethoxy-2-fluorophenyl)-1-oxidopyridin-2-yl]-3-cyclopropylpropanoyl}amino) benzoic acid] | 13
8.4 | 1.2 | O=C(O)c1ccc(NC(=O)C(CC2CC(F)C2)c2ccc(-c3c(C(F)F)ccc(Cl)c3F)c[n+]2[O-])cc1 (single isomer, unassigned) [Example 81, 2-(1-((4-carboxyphenyl)amino)-3-(3-fluorocyclobutyl)-1-oxopropan-2-yl)-5-(3-chloro-6-(difluoromethyl)-2-fluorophenyl)pyridine-1-oxide] | 0.58
25.2 | 1.2 | O=C(O)c1ccc(NC(=O)C(CC2CC2C(F)(F)F)c2ccc(-c3c(OC(F)F)ccc(Cl)c3F)c[n+]2[O-])cc1 (single isomer, unassigned) [Example 109, 2-(1-((4-carboxyphenyl)amino)-1-oxo-3-(2-(trifluoromethyl)cyclopropyl)propan-2-yl)-5-(3-chloro-6-(difluoromethoxy)-2-fluorophenyl)pyridine 1-oxide] | 0.76
20 | 0.45 | O=C(O)c1ccc(NC(=O)C(CC2CCCC2)c2ccc(-c3c(OC(F)F)ccc(Cl)c3F)c[n+]2[O-])cc1 (single isomer, unassigned) [Example 19, (R)- or (S)-4-[(2-{5-[3-chloro-6-(difluoromethoxy)-2-fluorophenyl]-1-oxidopyridin-2-yl}-3-cyclopentylpropanoyl)amino] benzoic acid] | 1.3
155 | 7.6 | N#CC1(CC(C(=O)Nc2ccc(C(=O)O)cc2)c2ccc(-c3c(C(F)(F)F)ccc(Cl)c3F)c[n+]2[O-])CC1 (racemic) [Example 30, 2-(1-((4-carboxyphenyl)amino)-3-(1-cyanocyclopropyl)-1-oxopropan-2-yl)-5-(3-chloro-2-fluoro-6-(trifluoromethyl)phenyl)pyridine 1-oxide] | 5.27
9.6 | 0.4 | O=C(O)c1ccc(NC(=O)C(CC2CC2CF)c2ccc(-c3c(C(F)F)ccc(Cl)c3F)c[n+]2[O-])cc1 (single isomer, unassigned) [Example 95, 2-(1-((4-carboxyphenyl)amino)-3-(2-(fluoromethyl)cyclopropyl)-1-oxopropan-2-yl)-5-(3-chloro-6-(difluoromethyl)-2-fluorophenyl)pyridine-1-oxide] | 0.43
20 | 0.56 | C[C@]1(O)CC[C@H](CC(C(=O)Nc2ccc(C(=O)O)cc2)c2ccc(-c3c(C(F)F)ccc(Cl)c3F)c[n+]2[O-])CC1 (single isomer, unassigned) [Example 47, 2-(1-((4-carboxyphenyl)amino)-3-((1r,4r)-4-hydroxy-4-methylcyclohexyl)-1-oxopropan-2-yl)-5-(3-chloro-6-(difluoromethyl)-2-fluorophenyl)pyridine 1-oxide] | 0.59
20 | 0.45 | C[C@]1(O)CC[C@H](CC(C(=O)Nc2ccc(C(=O)O)cc2)c2ccc(-c3c(OC(F)F)ccc(Cl)c3F)c[n+]2[O-])CC1 (single isomer, unassigned) [Example 43, 2-(1-((4-carboxyphenyl)amino)-3-((1r,4r)-4-hydroxy-4-methylcyclohexyl)-1-oxopropan-2-yl)-5-(3-chloro-6-(difluoromethoxy)-2-fluorophenyl)pyridine 1-oxide] | 0.55
6.1 | 0.21 | CC1CC1C[C@@H](C(=O)Nc1ccc(C(=O)O)cc1)c1ccc(-c2c(C(F)F)ccc(Cl)c2F)c[n+]1[O-] (single isomer, unassigned) [Example 62] | 0.35
84 | 4.3 | O=C(O)c1ccc(NC(=O)C(CC2CC2)c2ccc(-c3cc(Cl)ccc3C(F)F)c[n+]2[O-])cc1 (single isomer, unassigned) [Example 29, (R)- or (S)-2-(1-((4-carboxyphenyl)amino)-3-cyclopropyl-1-oxopropan-2-yl)-5-(5-chloro-2-(difluoromethyl)phenyl)pyridine 1-oxide] | 2.07
2.9 | 0.19 | CC1CC1C[C@@H](C(=O)Nc1ccc(C(=O)O)cc1)c1ccc(-c2c(C(F)F)ccc(Cl)c2F)c[n+]1[O-] (single isomer, unassigned) [Example 63] | 2.13
24.2 | 3.2 | O=C(O)c1ccc(NC(=O)C(CC2CC2C(F)(F)F)c2ccc(-c3c(OC(F)F)ccc(Cl)c3F)c[n+]2[O-])cc1 (single isomer, unassigned) [Example 107, 2-(1-((4-carboxyphenyl)amino)-1-oxo-3-(2-(trifluoromethyl)cyclopropyl)propan-2-yl)-5-(3-chloro-6-(difluoromethoxy)-2-fluorophenyl)pyridine 1-oxide] | 1.74
12 | 2.7 | C[C@]1(O)CC[C@@H](CC(C(=O)Nc2ccc(C(=O)O)cc2)c2ccc(-c3c(C(F)F)ccc(Cl)c3F)c[n+]2[O-])CC1 (single isomer, unassigned) [Example 45, 2-(1-((4-carboxyphenyl)amino)-3-((1s,4s)-4-hydroxy-4-methylcyclohexyl)-1-oxopropan-2-yl)-5-(3-chloro-6-(difluoromethyl)-2-fluorophenyl)pyridine 1-oxide] | 1.16
